Test results reported in patent US20220323406A1, “METHODS AND COMPOSITIONS FOR DIFFERENTIATING STEM CELLS” (Massachusetts Institute of Technology, priority 2019, published 2022).
Counter-ions that a name gives are not always drawn.

What was measured:
[1] = test system: ENR+CD organoids (ISC to Paneth cell differentiation); experiment: Primary screen: basal (non-stimulated) lysozyme secretion LYZ.NS, 2.5-D 384-well ENR+CD organoid differentiation; type: cell-based, mouse; conditions: primary screen; for Z.LYZ.NS: standard z score
Source text: (§1) High-throughput screening.

[2] = test system: ENR+CD organoids (ISC to Paneth cell differentiation); experiment: Primary screen: CCh-stimulated lysozyme secretion LYZ.S, 2.5-D 384-well ENR+CD organoid differentiation; type: cell-based, mouse; conditions: primary screen
Source text: as §1

ENR+CD organoids = experiment: Primary screen: ATP (CellTiter-Glo 3D, CTG) cell number/viability, 2.5-D 384-well ENR+CD organoids; conditions: primary screen; for Z.CTG: standard z score;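 for all read-outs here: compounds given at plating and again on day 3 over a 6-day differentiation from ENR+CV stem-cell-enriched precursors, ATP measured on day 6, plate median as control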
[3] = 1st dose row of the treatment (0.08 uM by row order; dose not reprinted)
[4] = 2nd dose row of the treatment (0.40 uM by row order; dose not reprinted)
[5] = 3rd dose row of the treatment (2.00 uM by row order; dose not reprinted)
[6] = 4th dose row of the treatment (10.00 uM by row order; dose not reprinted)

## CC1(COc2ccc3c(c2)ncn3-c2ccc3cccc(N4CCC(N)CC4)c3n2)COC1 [Crenolanib (CP-868596)]
[1]; dose 0.08 uM
  Dose.FC.LYZ.NS: 0.121 log2 fold change
  Z.LYZ.NS: 1.051
[1]; dose 0.40 uM
  Dose.FC.LYZ.NS: 0.051 log2 fold change
  Z.LYZ.NS: 0.441
[1]; dose 2.00 uM
  Dose.FC.LYZ.NS: 0.122 log2 fold change
  Z.LYZ.NS: 1.065
[1]; dose 10.00 uM
  Dose.FC.LYZ.NS: −0.224 log2 fold change
  Z.LYZ.NS: −1.951
[2]; dose 0.08 uM
  Dose.FC.LYZ.S: 0.094 log2 fold change
[2]; dose 0.40 uM
  Dose.FC.LYZ.S: 0.043 log2 fold change
[2]; dose 2.00 uM
  Dose.FC.LYZ.S: 0.149 log2 fold change
[2]; dose 10.00 uM
  Dose.FC.LYZ.S: −0.292 log2 fold change
ENR+CD organoids; dose 0.08 uM
  Dose.FC.CTG: −0.069 log2 fold change
  Z.CTG: −0.165
ENR+CD organoids; dose 0.40 uM
  Dose.FC.CTG: −0.025 log2 fold change
  Z.CTG: −0.059
ENR+CD organoids; dose 2.00 uM
  Dose.FC.CTG: 0.053 log2 fold change
  Z.CTG: 0.127
ENR+CD organoids; dose 10.00 uM
  Dose.FC.CTG: −0.338 log2 fold change
  Z.CTG: −0.808

## CCCCN1CCCCC1C(=O)Nc1c(C)cccc1C (stereo not drawn) [Bupivacaine HCl]
[1]; dose 0.08 uM
  Dose.FC.LYZ.NS: 0.002 log2 fold change
  Z.LYZ.NS (standard z score): 0.016
[1]; dose 0.40 uM
  Dose.FC.LYZ.NS: −0.100 log2 fold change
  Z.LYZ.NS: −0.871
[1]; dose 2.00 uM
  Dose.FC.LYZ.NS: −0.137 log2 fold change
  Z.LYZ.NS: −1.196
[1]; dose 10.00 uM
  Dose.FC.LYZ.NS: −0.195 log2 fold change
  Z.LYZ.NS: −1.700
[2]; dose 0.08 uM
  Dose.FC.LYZ.S: 0.082 log2 fold change
[2]; dose 0.40 uM
  Dose.FC.LYZ.S: −0.169 log2 fold change
[2]; dose 2.00 uM
  Dose.FC.LYZ.S: −0.210 log2 fold change
[2]; dose 10.00 uM
  Dose.FC.LYZ.S: −0.295 log2 fold change
ENR+CD organoids; dose 0.08 uM
  Dose.FC.CTG: −0.003 log2 fold change
ENR+CD organoids; dose 0.40 uM
  Dose.FC.CTG: −0.217 log2 fold change
ENR+CD organoids; dose 2.00 uM
  Dose.FC.CTG: −0.300 log2 fold change
ENR+CD organoids; dose 10.00 uM
  Dose.FC.CTG: −0.364 log2 fold change

## COc1cc2c(cc1O)CC[C@@H]1[C@@H]2CC[C@]2(C)[C@@H](O)CC[C@@H]12 [2-Methoxyestradiol (2-MeOE2)]
[1]; [3]
  SSMD.LYZ.NS_Rep (strictly standardized mean difference): 0.077
[1]; [4]
  SSMD.LYZ.NS_Rep (strictly standardized mean difference): 0.227
[1]; [5]
  SSMD.LYZ.NS_Rep (strictly standardized mean difference): 0.049
[1]; [6]
  SSMD.LYZ.NS_Rep (strictly standardized mean difference): −0.826
[1]; dose 0.08 uM
  Dose.FC.LYZ.NS: 0.021 log2 fold change
  Z.LYZ.NS (standard z score): 0.186
[1]; dose 0.40 uM
  Dose.FC.LYZ.NS: 0.065 log2 fold change
  Z.LYZ.NS (standard z score): 0.566
[1]; dose 2.00 uM
  Dose.FC.LYZ.NS: 0.005 log2 fold change
  Z.LYZ.NS (standard z score): 0.041
[1]; dose 10.00 uM
  Dose.FC.LYZ.NS: −0.139 log2 fold change
  Z.LYZ.NS (standard z score): −1.209
[2]; [3]
  SSMD.LYZ.S_Rep (strictly standardized mean difference): 1.015
  Z.LYZ.S (standard z score): 1.224
[2]; [4]
  SSMD.LYZ.S_Rep (strictly standardized mean difference): 0.831
  Z.LYZ.S (standard z score): 1.747
[2]; [5]
  SSMD.LYZ.S_Rep (strictly standardized mean difference): 0.144
  Z.LYZ.S (standard z score): 0.190
[2]; [6]
  SSMD.LYZ.S_Rep (strictly standardized mean difference): −1.135
  Z.LYZ.S (standard z score): −1.795
[2]; dose 0.08 uM
  Dose.FC.LYZ.S: 0.189 log2 fold change
[2]; dose 0.40 uM
  Dose.FC.LYZ.S: 0.270 log2 fold change
[2]; dose 2.00 uM
  Dose.FC.LYZ.S: 0.029 log2 fold change
[2]; dose 10.00 uM
  Dose.FC.LYZ.S: −0.278 log2 fold change
ENR+CD organoids; [3]
  SSMD.CTG.Rep (strictly standardized mean difference): 0.407
ENR+CD organoids; [4]
  SSMD.CTG.Rep (strictly standardized mean difference): 0.930
ENR+CD organoids; [5]
  SSMD.CTG.Rep (strictly standardized mean difference): 0.461
ENR+CD organoids; [6]
  SSMD.CTG.Rep (strictly standardized mean difference): −0.878
ENR+CD organoids; dose 0.08 uM
  Dose.FC.CTG: 0.299 log2 fold change
  Z.CTG (standard z score): 0.714
ENR+CD organoids; dose 0.40 uM
  Dose.FC.CTG: 0.401 log2 fold change
  Z.CTG (standard z score): 0.957
ENR+CD organoids; dose 2.00 uM
  Dose.FC.CTG: 0.227 log2 fold change
  Z.CTG (standard z score): 0.543
ENR+CD organoids; dose 10.00 uM
  Dose.FC.CTG: −0.672 log2 fold change
  Z.CTG (standard z score): −1.606
